pIC50: −log10 of the molar value. Read-outs that look alike come from different tables or passages of the source.
Legend:
[1] = tested on: P. falciparum male gametocytes; experiment: P. falciparum Dual Gamete Formation Assay (PfDGFA), male readout (exflagellation); assay type: cell-based, Plasmodium falciparum NF54; conditions: for Selectivity Ratio M: HepG2 Tox50 versus male IC50; for pIC50: PfDGFA, 24 h incubation with gametocytes before induction, exflagellation readout, read-out: Male IC50; for HitlevelM: number of replicates with >50% inhibition in the male readout
How it was run: (§1)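 Male and female gamete formation were quantified by microscopy image analysis following 24 h incubation of mature NF54 gametocytes with compound and activation at 28°C with xanthurenic acid.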

[2] = tested on: P. falciparum female gametocytes; experiment: P. falciparum Dual Gamete Formation Assay (PfDGFA), female readout (Pfs25-positive female gametes); assay type: cell-based, Plasmodium falciparum NF54; conditions: for Selectivity ratio F: HepG2 Tox50 versus female IC50; for pIC50: PfDGFA, 24 h incubation with gametocytes before induction, female gamete readout, read-out: Female IC50; for HitlevelF: number of replicates with >50% inhibition in the female readout
How it was run: as §1

HepG2 cells = experiment: HepG2 cytotoxicity counter-screen; conditions: cytotoxic activity against HepG2 cells
[3] = 2µM, 24h preincubation with gametocytes, average of replicates
[4] = 2µM, 24h preincubation with gametocytes, replicate R1
[5] = 2µM, 24h preincubation with gametocytes, replicate R3
[6] = 2µM, 24h preincubation with gametocytes, replicate R4
[7] = 2µM, 24h preincubation with gametocytes prior to induction of gametogenesis, average of replicates
[8] = 2µM, 24h preincubation with gametocytes prior to induction of gametogenesis, replicate R1
[9] = 2µM, 24h preincubation with gametocytes prior to induction of gametogenesis, replicate R3
[10] = 2µM, 24h preincubation with gametocytes prior to induction of gametogenesis, replicate R4
[11] = Plasmodium falciparum, 2µM, 24h preincubation with gametocytes, average of replicates, read-out: Average inhibition male (%)
[12] = Plasmodium falciparum, 2µM, 24h preincubation with gametocytes, replicate R1, read-out: % inhibition male (individual replicates) R1
[13] = Plasmodium falciparum, 2µM, 24h preincubation with gametocytes, replicate R2, read-out: % inhibition male (individual replicates) R2
[14] = Plasmodium falciparum, 2µM, 24h preincubation with gametocytes, replicate R3, read-out: % inhibition male (individual replicates) R3
[15] = Plasmodium falciparum, 2µM, 24h preincubation with gametocytes, replicate R4, read-out: % inhibition male (individual replicates) R4
[16] = Plasmodium falciparum, 2µM, 24h preincubation with gametocytes, average of replicates, read-out: Average inhibition female (%)
[17] = Plasmodium falciparum, 2µM, 24h preincubation with gametocytes, replicate R1, read-out: % inhibition female (individual replicates) R1
[18] = Plasmodium falciparum, 2µM, 24h preincubation with gametocytes, replicate R2, read-out: % inhibition female (individual replicates) R2
[19] = Plasmodium falciparum, 2µM, 24h preincubation with gametocytes, replicate R3, read-out: % inhibition female (individual replicates) R3
[20] = Plasmodium falciparum, 2µM, 24h preincubation with gametocytes, replicate R4, read-out: % inhibition female (individual replicates) R4
[21] = PfDGFA at 2µM, 24h preincubation with gametocytes, average of replicates
[22] = PfDGFA at 2µM, 24h preincubation with gametocytes, replicate R1
[23] = PfDGFA at 2µM, 24h preincubation with gametocytes, replicate R3
[24] = PfDGFA at 2µM, 24h preincubation with gametocytes, replicate R4

pIC50 [1]	pIC50 [2]	pIC50 ([1]; Plasmodium falciparum)	pIC50 ([2]; Plasmodium falciparum)	Structure (SMILES)	Selectivity Ratio M [1]	Selectivity ratio F [2]	Tox50 (HepG2 cells) [µM]	inhibition at 2 µM [1, 11] [%]	inhibition at 2 µM [1, 12] [%]	inhibition at 2 µM [1, 13] [%]	inhibition at 2 µM [1, 15] [%]	inhibition at 2 µM [2, 16] [%]	inhibition at 2 µM [2, 17] [%]	inhibition at 2 µM [2, 18] [%]	inhibition at 2 µM [2, 19] [%]	inhibition at 2 µM [2, 20] [%]	further results
6.66	6.64			COc1cc2nc(N3CCC(CNCc4ccc(-c5ccc(C(F)(F)F)cc5)cc4)CC3)nc(N)c2cc1OC [TCMDC-138757]	9.29	8.75	2.05										Average inhibition male (%) [1, 3]: 97.9%; % inhibition male (individual replicates) R1 [1, 4]: 97.9%; % inhibition male (individual replicates) R3 [1, 5]: 96.8%; % inhibition male (individual replicates) R4 [1, 6]: 99.6%; Average inhibition female (%) [2, 3]: 59.1%; % inhibition female (individual replicates) R1 [2, 4]: 32.6%; % inhibition female (individual replicates) R3 [2, 5]: 30.7%; % inhibition female (individual replicates) R4 [2, 6]: 89.8%
5.92	5.76			Cl.Clc1ccc(OCCC2CCN(CCCCCCCN3CCC(CCOc4ccc(Cl)c(Cl)c4)CC3)CC2)cc1Cl [TCMDC-138967]	2.82	1.93	3.36										Average inhibition male (%) [1, 3]: 95.6%; % inhibition male (individual replicates) R1 [1, 4]: 93.1%; % inhibition male (individual replicates) R3 [1, 5]: 96.8%; % inhibition male (individual replicates) R4 [1, 6]: 99.1%; Average inhibition female (%) [2, 3]: 87.8%; % inhibition female (individual replicates) R1 [2, 4]: 88.3%; % inhibition female (individual replicates) R3 [2, 5]: 97.6%; % inhibition female (individual replicates) R4 [2, 6]: 78.8%
6.05	5.88			COc1ccc(NC(=O)c2ccc(OCCCCCCCOc3ccc(C(=O)Nc4ccc(OC)c(N5CCN(C)CC5)c4)cc3)cc2)cc1N1CCN(C)CC1.O=C(O)C(=O)O [TCMDC-139007]	4.37	2.96	3.94										Average inhibition male (%) [1, 3]: 92.9%; % inhibition male (individual replicates) R1 [1, 4]: 92.7%; % inhibition male (individual replicates) R3 [1, 5]: 82.0%; % inhibition male (individual replicates) R4 [1, 6]: 95.6%; Average inhibition female (%) [2, 3]: 47.5%; % inhibition female (individual replicates) R1 [2, 4]: 33.2%; % inhibition female (individual replicates) R3 [2, 5]: 33.3%; % inhibition female (individual replicates) R4 [2, 6]: 62.1%
5.70	5.74			COc1ccc(NC(=O)c2cccc(Br)c2)cc1N1CCN(CCCCCCCN2CCN(c3cc(NC(=O)c4cccc(Br)c4)ccc3OC)CC2)CC1.Cl [TCMDC-139020]	4	4.34	7.95										Average inhibition male (%) [1, 7]: 30.8%; % inhibition male (individual replicates) R1 [1, 8]: 35.3%; % inhibition male (individual replicates) R3 [1, 9]: 36.0%; % inhibition male (individual replicates) R4 [1, 10]: 43.4%; HitlevelM ([1]; 2µM, 24h preincubation): 0; Average inhibition female (%) [2, 7]: 52.2%; % inhibition female (individual replicates) R1 [2, 8]: 51.4%; % inhibition female (individual replicates) R3 [2, 9]: 52.5%; % inhibition female (individual replicates) R4 [2, 10]: 56.9%; HitlevelF ([2]; 2µM, 24h preincubation): 3
		5.73	5.89	COc1cccc(C23NC(=Nc4nc5ccccc5[nH]4)NC2(c2cccc(OC)c2)NC(=Nc2nc4ccccc4[nH]2)N3)c1 (stereo not shown) [TCMDC-139087]	17.52	24.94	32.37										inhibition at 2 µM ([1]; Plasmodium falciparum, PfDGFA at 2µM, 24h preincubation with gametocytes, average of replicates, read-out: Average inhibition male (%)): 78.4%; inhibition at 2 µM ([1]; Plasmodium falciparum, PfDGFA at 2µM, 24h preincubation with gametocytes, replicate R1, read-out: % inhibition male (individual replicates) R1): 83%; inhibition at 2 µM ([1]; Plasmodium falciparum, PfDGFA at 2µM, 24h preincubation with gametocytes, replicate R2, read-out: % inhibition male (individual replicates) R2): 72.6%; inhibition at 2 µM ([1]; Plasmodium falciparum, PfDGFA at 2µM, 24h preincubation with gametocytes, replicate R3, read-out: % inhibition male (individual replicates) R3): 79%; inhibition at 2 µM ([1]; Plasmodium falciparum, PfDGFA at 2µM, 24h preincubation with gametocytes, replicate R4, read-out: % inhibition male (individual replicates) R4): 78.9%; HitlevelM ([1]; 2µM): 4; inhibition at 2 µM ([2]; Plasmodium falciparum, PfDGFA at 2µM, 24h preincubation with gametocytes, average of replicates, read-out: Average inhibition female (%)): 28.9%; inhibition at 2 µM ([2]; Plasmodium falciparum, PfDGFA at 2µM, 24h preincubation with gametocytes, replicate R1, read-out: % inhibition female (individual replicates) R1): 18.4%; inhibition at 2 µM ([2]; Plasmodium falciparum, PfDGFA at 2µM, 24h preincubation with gametocytes, replicate R2, read-out: % inhibition female (individual replicates) R2): 40.4%; inhibition at 2 µM ([2]; Plasmodium falciparum, PfDGFA at 2µM, 24h preincubation with gametocytes, replicate R3, read-out: % inhibition female (individual replicates) R3): 9.2%; inhibition at 2 µM ([2]; Plasmodium falciparum, PfDGFA at 2µM, 24h preincubation with gametocytes, replicate R4, read-out: % inhibition female (individual replicates) R4): 47.7%; HitlevelF ([2]; 2µM): 0
		6.02	5.99	c1ccc(-c2nc(Nc3nc4ccccc4[nH]3)[nH]c2-c2ccccc2)cc1 [TCMDC-139099]	17.05	15.94	16.22	97.9	97.5	98.5	98.9	58.5	38.7	75.2	46.9	73.1	inhibition at 2 µM [1, 14]: 96.8%
		6.52	6.52	Br.c1cc(Nc2nc(-c3ccc(-c4csc(Nc5ccncc5)n4)cc3)cs2)ccn1 [TCMDC-139725]	15.17	15.01	4.53	95.5	101	98.4	91.8	92.1	90.8	87.3	93.4	96.9	inhibition at 2 µM [1, 14]: 91.3%
		5.77	5.23	CN(C)c1ccnc2ccc(NC(=O)Nc3ccnc4ccccc34)cc12 [TCMDC-139749]	13.31	3.83	22.68	96.1	97.3	94.7	96.1	29.2	32.7	28.8	22.7	32.6	
5.80	5.90			CC(Cc1ccc(C(=O)Nc2ccc(CC(C)NCCc3cccc(Cl)c3)cc2)cc1)NCCc1ccc(C(F)(F)F)cc1 (stereo not shown) [TCMDC-139790]	2.39	3.01	3.76										Average inhibition male (%) [1, 21]: 83.5%; % inhibition male (individual replicates) R1 [1, 22]: 92.2%; % inhibition male (individual replicates) R3 [1, 23]: 51.0%; % inhibition male (individual replicates) R4 [1, 24]: 92.9%; HitlevelM ([1]; 2µM): 4; Average inhibition female (%) [2, 21]: 37.4%; % inhibition female (individual replicates) R1 [2, 22]: 27.8%; % inhibition female (individual replicates) R3 [2, 23]: 24.4%; % inhibition female (individual replicates) R4 [2, 24]: 27.0%; HitlevelF ([2]; 2µM): 1
5.73	5.43			CC(Cc1ccc(NC(=O)c2ccc(CNCCCCc3ccccc3)cc2)cc1)NCCc1cccc(Cl)c1.Cl (stereo not shown) [TCMDC-139866]	2.02	1.02	3.81										Average inhibition male (%) [1, 21]: 80.8%; % inhibition male (individual replicates) R1 [1, 22]: 85.9%; % inhibition male (individual replicates) R3 [1, 23]: 43.9%; % inhibition male (individual replicates) R4 [1, 24]: 97.6%; HitlevelM ([1]; 2µM): 3; Average inhibition female (%) [2, 21]: 35.2%; % inhibition female (individual replicates) R1 [2, 22]: 34.1%; % inhibition female (individual replicates) R3 [2, 23]: 6.7%; % inhibition female (individual replicates) R4 [2, 24]: 45.1%; HitlevelF ([2]; 2µM): 1

Structure (SMILES)	pIC50 [1]	pIC50 [2]	pIC50 ([1]; Plasmodium falciparum)	pIC50 ([2]; Plasmodium falciparum)	Selectivity Ratio M [1]	Selectivity ratio F [2]	Tox50 (HepG2 cells) [µM]	inhibition at 2 µM [1, 11] [%]	inhibition at 2 µM [1, 12] [%]	inhibition at 2 µM [1, 13] [%]	inhibition at 2 µM [1, 15] [%]	inhibition at 2 µM [2, 16] [%]	inhibition at 2 µM [2, 17] [%]	inhibition at 2 µM [2, 18] [%]	inhibition at 2 µM [2, 19] [%]	inhibition at 2 µM [2, 20] [%]	further results
COc1ccc2nc(N=C3NC4(c5ccccc5)NC(=Nc5nc6ccc(OC)cc6[nH]5)NC4(c4ccccc4)N3)[nH]c2c1.O=C(O)C(F)(F)F (stereo not shown) [TCMDC-139632]			5.94	5.23	29.01	5.74	33.52	94.4	95.5	96.3	90.9	18.9	23.3	24.8	10.6	17.1	inhibition at 2 µM [1, 14]: 95.1%

From publication PMC10584170, “Machine learning-based phenotypic imaging to characterise the targetable biology of Plasmodium falciparum male gametocytes for the development of transmission-blocking antimalarials” (PLOS Pathogens, 2023)
